Legend:
Assay type in all cases: cell-based, mouse
Mut MEFs [1] = test: JC1 staining of intact and damaged mitochondria (mitochondrial membrane potential); settings: Mutant MEFs, 1 μM, 24 hours (FIG. 12)
Description: Mut MEFs were treated or not for 6 hours with the indicated concentrations of p8G5 (blue), pre084 (purple), or NE-100 (yellow), washed and stained with Hoechst and JC1 for 30 minutes followed by image acquisition using In-Cell-Analyzer-2000. Shown is the % of red/green JC1 integrated intensity per cell relative to that in untreated WT cells of 2-4 independent experiments.
Following, the cells were washed, stained with Hoechst and JC-1 fluorescent dyes for 30 minutes, and subjected to image acquisition using In-Cell-Analyzer-2000. Shown is cellular content of damaged mitochondria (JC1 green channel, red bars), intact mitochondria (JC1 red channel, green bars) and damaged to intact mitochondria ratio (blue bars). Values of control (vehicle treated) cells was set to 100%.
Mut MEFs were treated with the indicated compounds at 10 μM for 24 hours followed by staining with fluorogenic dyes and image-based single-cell analysis. Shown is average effect on ROS level from at least 3-independent experiments ±SEM. […] Mut MEFs were incubated or not for 24 hours with 10 μM of the indicated compound, washed and stained with Crystal Violet. […] Mut MEFs were incubated or not for 24 hours with 10 μM of the indicated compound, washed and stained with JC1 and Hoechst followed by image-based single-cell analysis. Values of untreated cells were set as 100%. Shown is average of at least 3 independent experiments for each parameter compared to its matching control ±SEM. * p<0.05. Putative targets are indicated.
Mut MEFs were incubated or not for 24 hours with 10 μM of the indicated compounds, washed and stained with Hoechst and JC1 followed by image-based single-cell analysis. […] Mut MEFs were incubated or not with the indicated concentrations of the indicated compounds for 2 hours followed by addition of 50 ng/ml Tunicamycin (Tun) for additional 22 hours, stained with Crystal Violet followed by measurement of absorbance at 570 nm.
MEFs were seeded on 1% gelatin-coated 96-wells plate at a density of 5000 cells per well. 24 hours post-plating the cells were incubated with the tested compounds for additional 24 hours. Several DMSO-treated cells (control) were included in each plate at different locations. Following, the cells were stained by addition of fluorogenic dyes for further 30 minutes incubation at 37° C. […] CellROX was used together with Hoechst and CFSE; JC1 was used together with Hoechst. Cells were washed with Hank's balanced salt solution (HBSS) which was used for images acquisition using IN Cell Analyzer 2000 (GE Healthcare, Pitsburgh, Pa., USA). IN Cell Developer Toolbox 1.9.1 software (GE Healthcare) was used for analysis which included cells segmentation using Hoechst and/or CFSE signals. For analysis of JC1 staining, integrated intensity of green and red emissions were used for detection of damaged and intact mitochondria, respectively.

primary OPC = test: OPC differentiation assay (IncuCyte); settings: 1 μM, 60 hours in differentiation medium (FIG. 13)
Description: Images were taken every 10 hours followed by analysis using IncuCyte ZOOM software (2016B).
5,000 cells OPCs per well were seeded in a 96 wells plate and maintained overnight in proliferation media (Emery et al. 2013). […] OPC differentiation was monitored by continuous imaging. Images taken at ten hours intervals were analyzed by IncuCyte NeuroTrack software for the following parameters: Neurite length, Neurite branch points, Cell body clusters and Cell body cluster area. Statistics—For all comparisons, Student's t-test was performed using ≥3 independent biological repeats for each group (methodological selection of sample size was not applied).

Mut MEFs [2] = test: Cell survival assay, Crystal violet staining, Mut MEFs; settings: 24 hours, untreated cells set to 100%
Description: (§1) Cells were seeded on 96-wells plate at a density of 5000 cells per well. Astrocytes were seeded following coating with 0.001% PDL.

Mut MEFs [3] = test: mtDNA quantification (qPCR of mitochondrial 12S rRNA and nuclear 18S rRNA genes), MEFs; settings: 1 μM-10 μM, 6 hours incubation (FIG. 2)
Description: DNA extracted from WT and Mut MEFs that were treated or not for 6 hours with 0.1 μM, 1 μM or 10 μM of p8G5 (blue), Pre084 (known SIG-1R agonist, purple), pridopidine (known SIG-1R agonists, green) or NE-100 (known SIG-1R antagonist, yellow) was subjected to qPCR analysis of mitochondrial 12S rRNA and nuclear 18S rRNA genes.

Mut MEFs [4] = test: TMRE staining, flow cytometry; settings: 10 μM, 6 hours (FIGS. 5A-B)
Description: Mut MEFs were treated or untreated with the indicated concentrations of the indicated Sig-1R binders for 6 hours, stained by TMRE for 30 minutes and analyzed by flow cytometry. Shown are flow cytometry histograms and bar graphs representing % mean TMRE fluorescence intensity relative to non-treated WT cells of a representative experiment.
MEFs were seeded at a density of 4×10^4 cells per well in a 24-wells plate. 24 hours post-plating the cells were incubated with the tested compounds for additional 6 hours followed by staining with 200 nM Tetra-Methyl-Rhodamine-Ethyl esterperchlorate (TMRE) (Abcam) for 30 minutes at 37° C. Cells were removed by trypsinyzation, washed and resuspended in PBS. 5-10×10^3 cells were analyzed by Stratedigm S1000EXi cell sorter and FlowJo software (FLOWJO, LLC, Ashland, Oreg., USA).

Mut astrocytes = test: Survival under Tunicamycin-induced ER stress, Crystal Violet, astrocytes; settings: 30 μM, 50 ng/ml Tunicamycin last 22 hours (FIG. 19)
Description: WT and Mut astrocytes were treated or not for 24 hours with 20, 30 or 50 μM of the indicated Sig-1R binders in the presence of 50 ng/ml Tunicamycin (Tun) during the last 22 hours. Following, the cells were washed, fixated and stained with Crystal Violet (CV) followed by measurement of absorbance at 570 nm. Shown is % of CV staining relative to cells not treated with tunicamycin nor Sig-1R binder ±SEM of 3 independent experiments, *p<0.05.
as §1

Mut primary astrocytes [5] = test: Oxygen consumption (OCR), primary astrocytes; settings: 1 or 10 μm, 6 hours, normalized to cell number (FIGS. 17B-C)
Description: (§2) Shown is average relative quantity (RQ) of 2-6 independent experiments normalized to their untreated controls ±SEM. […] Values of ATP-linked respiration (FIG. 17B) and maximal respiration (FIG. 17C) were analyzed and normalized to cell number.
(§3) The data were normalized to cell number, obtained by Crystal Violet staining, or to mtDNA content.

Mut primary astrocytes [6] = test: mtDNA quantification, primary astrocytes; settings: 1 or 10 μm, 6 hours (FIG. 17A)
Description: as §2

Mut MEFs [7] = test: Oxygen consumption (Seahorse XF Cell Mito Stress Test), MEFs
Description: Mut MEFs were treated or not for 6 hours with the indicated concentrations of the indicated Sig-1R binders. Oxygen consumption was measured in a XF96 Extracellular Flux Analyzer using the Seahorse XF Cell Mito Stress Test Kit. The Basal respiration (FIG. 7A) and ATP-linked respiration (FIG. 7B) data were normalized to biomass as determined by Crystal Violet staining.
Mut MEFs were treated or not for 6 hours with the indicated concentrations of the indicated Sig-1R binders. Oxygen consumption was measured in a XF96 Extracellular Flux Analyzer using the Seahorse XF Cell Mito Stress Test Kit. The Basal respiration (FIG. 8A), ATP-linked respiration (FIG. 8B) and maximal respiration (FIG. 8C) data was normalized to mtDNA content as detailed in FIG. 2.
as §3

SMILES | content of damaged mitochondria (JC1 green channel) (Mut MEFs [1]) | content of intact mitochondria (JC1 red channel) (Mut MEFs [1]) | neurite length, neurite branch points, cell body clusters and cell body cluster area (primary OPC) | Survival (%) ± SEM Mut MEFs (Mut MEFs [2]; 0.1 μM) | Survival (%) ± SEM Mut MEFs (Mut MEFs [2]; 1 μM) | Survival (%) ± SEM Mut MEFs (Mut MEFs [2]; 10 μM) | mitochondrial content in Mut MEFs (Mut MEFs [3]) | TMRE staining (mitochondrial membrane potential) (Mut MEFs [4]) | survival rate of Mut astrocytes under ER-stress conditions (Mut astrocytes) | ATP-linked and maximal respiration in mutant astrocytes (Mut primary astrocytes [5]) | mitochondrial content per cell in astrocytes (Mut primary astrocytes [6]) | maximal respiration rate per mitochondrial content (Mut MEFs [7]; 1 μM, 6 hours (FIG. 8C)) | basal and ATP-linked respiration rate per mitochondrial DNA content (Mut MEFs [7]; 6 hours (FIGS. 8A-B))
CC1=C2C[C@H]3[C@@H](CC=C4C[C@@H](O)CC[C@@]43C)[C@@H]2CC[C@]12O[C@@H]1C[C@H](C)CN[C@H]1[C@H]2C [Cyclopamine, reference compound] | decreased content of damaged mitochondria | increased content of intact mitochondria | positive effect | 92 ± 2.5% | 95 ± 4.1% | 79 ± 1.4% | – | – | – | – | – | – | –
CCCN1CCC(c2cccc(S(C)(=O)=O)c2)CC1 [pridopidine, 4-(3-(Methylsulfonyl)phenyl)-1-propylpiperidine] | – | – | – | – | – | – | lowered the abnormal high mitochondrial content | increased TMRE staining to a level above that of untreated WT cells | increased the survival rate | increased both ATP-linked and maximal respiration | no effect on mitochondrial content per cell | increased the maximal respiration capacity per mitochondria to the level of untreated WT cells | beneficial effect
